Measurements: ChEMBL document CHEMBL1781944, “The discovery of novel benzofuran-2-carboxylic acids as potent Pim-1 inhibitors” (Bioorg Med Chem Lett, 2011)
Values after ≈ are worked out from the molar mass of the structure shown. Active and inactive are the calls of the source. The rule behind the calls is not given here.

Experiments:
[1] = molecular target: Serine/threonine-protein kinase pim-2 (Homo sapiens, UniProt Q9P1W9)
[2] = molecular target: T1, Serine/threonine-protein kinase pim-1 (Homo sapiens, UniProt P11309)
Target sequence in this assay (P11309 whole entry): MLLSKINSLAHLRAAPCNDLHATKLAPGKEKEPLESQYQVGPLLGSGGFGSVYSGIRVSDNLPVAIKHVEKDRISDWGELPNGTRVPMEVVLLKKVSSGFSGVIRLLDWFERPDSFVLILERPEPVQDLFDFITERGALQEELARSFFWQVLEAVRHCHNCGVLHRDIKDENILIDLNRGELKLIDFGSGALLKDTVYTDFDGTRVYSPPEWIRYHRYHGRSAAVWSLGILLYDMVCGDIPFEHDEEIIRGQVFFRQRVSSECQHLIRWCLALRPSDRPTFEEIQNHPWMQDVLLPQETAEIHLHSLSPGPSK

Cytochrome P450 1A2 = molecular target: T2, Cytochrome P450 1A2 (Homo sapiens, UniProt P05177); experiment: Inhibition of CYP1A2 in human liver microsomes; format: ADME, Microsome
T2 sequence (P05177 whole entry): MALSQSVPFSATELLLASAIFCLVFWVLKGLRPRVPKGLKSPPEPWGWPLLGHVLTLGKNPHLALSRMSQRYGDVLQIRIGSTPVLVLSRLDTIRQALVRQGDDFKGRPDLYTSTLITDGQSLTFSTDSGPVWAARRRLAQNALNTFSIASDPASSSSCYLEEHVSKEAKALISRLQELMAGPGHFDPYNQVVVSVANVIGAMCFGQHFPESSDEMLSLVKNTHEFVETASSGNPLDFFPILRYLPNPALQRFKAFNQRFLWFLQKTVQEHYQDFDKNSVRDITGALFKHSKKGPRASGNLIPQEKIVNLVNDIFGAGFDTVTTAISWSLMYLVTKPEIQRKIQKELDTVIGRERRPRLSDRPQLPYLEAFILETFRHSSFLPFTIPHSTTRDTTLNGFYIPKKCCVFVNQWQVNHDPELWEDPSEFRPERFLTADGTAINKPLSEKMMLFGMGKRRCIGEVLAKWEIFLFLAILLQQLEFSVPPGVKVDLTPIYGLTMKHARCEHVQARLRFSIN

[3] = Intrinsic clearance in rat liver microsomes; format: ADME, Microsome
Cytochrome P450 2D6 = Cytochrome P450 2D6 (Homo sapiens, UniProt P10635); experiment: Inhibition of CYP2D6 in human liver microsomes; format: ADME, Microsome
Cytochrome P450 2C9 = Cytochrome P450 2C9 (Homo sapiens, UniProt P11712); experiment: Inhibition of CYP2C9 in human liver microsomes; format: ADME, Microsome
in vitro = conditions: human, liver microsomes
[4] = Solubility of the compound in phosphate buffered saline buffer at pH 7.4; format: physicochemical
Cytochrome P450 3A4 = Cytochrome P450 3A4 (Homo sapiens, UniProt P08684); experiment: Inhibition of CYP3A4 in human liver microsomes; format: ADME, Microsome
Cytochrome P450 2C19 = Cytochrome P450 2C19 (Homo sapiens, UniProt P33261); experiment: Inhibition of CYP2C19 in human liver microsomes; format: ADME, Microsome
[5] = molecular target: T1, Serine/threonine-protein kinase pim-1; conditions: 25 uM
Target sequence in this assay (P11309 whole entry, looked up): as the sequence (P11309 whole entry) above

Chain of Serine/threonine-protein kinase pim-2 (Q9P1W9 whole entry): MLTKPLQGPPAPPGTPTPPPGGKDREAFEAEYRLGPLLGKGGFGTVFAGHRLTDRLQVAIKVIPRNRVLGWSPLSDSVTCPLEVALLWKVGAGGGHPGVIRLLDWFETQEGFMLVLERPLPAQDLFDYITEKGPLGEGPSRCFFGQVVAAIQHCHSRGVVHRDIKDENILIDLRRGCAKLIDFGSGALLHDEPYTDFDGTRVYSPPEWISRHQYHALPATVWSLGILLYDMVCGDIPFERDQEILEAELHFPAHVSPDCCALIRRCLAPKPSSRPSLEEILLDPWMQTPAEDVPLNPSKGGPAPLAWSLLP
Chain of Cytochrome P450 2C19 (P33261 whole entry): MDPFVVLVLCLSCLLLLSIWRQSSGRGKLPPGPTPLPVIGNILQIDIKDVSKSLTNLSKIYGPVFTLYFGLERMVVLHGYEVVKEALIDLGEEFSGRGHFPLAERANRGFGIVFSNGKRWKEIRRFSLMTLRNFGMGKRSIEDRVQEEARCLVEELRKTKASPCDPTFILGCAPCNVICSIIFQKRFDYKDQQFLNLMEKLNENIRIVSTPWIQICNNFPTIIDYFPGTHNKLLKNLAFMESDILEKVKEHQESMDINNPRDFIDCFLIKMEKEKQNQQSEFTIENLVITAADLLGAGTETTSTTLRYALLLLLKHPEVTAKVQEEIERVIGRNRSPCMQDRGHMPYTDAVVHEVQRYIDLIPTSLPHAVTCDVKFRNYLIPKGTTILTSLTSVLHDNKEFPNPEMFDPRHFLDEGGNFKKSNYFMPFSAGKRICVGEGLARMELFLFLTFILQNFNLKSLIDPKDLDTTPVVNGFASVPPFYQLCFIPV
Chain of Cytochrome P450 3A4 (P08684 whole entry): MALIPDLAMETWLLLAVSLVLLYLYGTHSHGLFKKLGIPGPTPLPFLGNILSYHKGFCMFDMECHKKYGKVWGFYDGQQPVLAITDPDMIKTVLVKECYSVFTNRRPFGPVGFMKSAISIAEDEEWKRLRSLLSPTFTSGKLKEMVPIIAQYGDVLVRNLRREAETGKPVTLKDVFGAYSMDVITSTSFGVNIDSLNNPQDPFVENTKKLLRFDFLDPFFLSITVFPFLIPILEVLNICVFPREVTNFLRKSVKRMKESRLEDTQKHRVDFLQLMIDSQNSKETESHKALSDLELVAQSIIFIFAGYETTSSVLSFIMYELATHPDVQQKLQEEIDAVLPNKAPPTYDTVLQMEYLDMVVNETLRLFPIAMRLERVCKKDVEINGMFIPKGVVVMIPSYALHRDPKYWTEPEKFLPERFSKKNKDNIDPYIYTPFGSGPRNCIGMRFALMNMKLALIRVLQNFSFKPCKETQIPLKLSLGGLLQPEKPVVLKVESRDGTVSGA
Chain of Cytochrome P450 2C9 (P11712 whole entry): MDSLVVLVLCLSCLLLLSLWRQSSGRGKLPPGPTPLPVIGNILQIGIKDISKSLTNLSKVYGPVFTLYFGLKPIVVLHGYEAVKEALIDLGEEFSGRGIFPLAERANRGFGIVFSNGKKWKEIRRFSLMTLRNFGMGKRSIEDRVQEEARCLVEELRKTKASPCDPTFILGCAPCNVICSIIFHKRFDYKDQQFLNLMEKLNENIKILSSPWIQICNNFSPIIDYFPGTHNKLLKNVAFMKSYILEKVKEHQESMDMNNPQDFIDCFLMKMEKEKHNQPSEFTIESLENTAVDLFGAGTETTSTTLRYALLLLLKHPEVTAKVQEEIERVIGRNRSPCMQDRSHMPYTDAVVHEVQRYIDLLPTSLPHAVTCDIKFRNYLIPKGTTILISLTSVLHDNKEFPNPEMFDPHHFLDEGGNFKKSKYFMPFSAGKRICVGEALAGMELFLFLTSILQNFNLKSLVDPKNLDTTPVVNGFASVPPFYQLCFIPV
Chain of Cytochrome P450 2D6 (P10635 whole entry): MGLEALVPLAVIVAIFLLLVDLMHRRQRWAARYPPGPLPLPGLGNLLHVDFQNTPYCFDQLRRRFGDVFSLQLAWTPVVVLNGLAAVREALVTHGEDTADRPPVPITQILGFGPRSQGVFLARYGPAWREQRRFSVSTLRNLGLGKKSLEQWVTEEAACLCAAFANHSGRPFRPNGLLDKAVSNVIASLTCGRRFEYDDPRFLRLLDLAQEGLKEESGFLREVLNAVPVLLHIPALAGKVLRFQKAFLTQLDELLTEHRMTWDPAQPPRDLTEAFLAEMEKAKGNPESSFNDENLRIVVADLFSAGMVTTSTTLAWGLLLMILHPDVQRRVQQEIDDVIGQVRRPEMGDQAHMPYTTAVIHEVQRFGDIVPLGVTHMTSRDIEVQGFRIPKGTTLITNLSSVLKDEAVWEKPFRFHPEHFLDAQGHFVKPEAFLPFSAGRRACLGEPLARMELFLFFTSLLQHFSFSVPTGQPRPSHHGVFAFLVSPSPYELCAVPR

SMILES | IC50 [1] [nM] | IC50 [2] [nM] | further results
N[C@H]1CC[C@@H](Nc2cncc(-c3ccc4oc(C(=O)O)cc4c3)n2)CC1 | 110 | 200 | 
NC[C@H]1CC[C@H](Nc2cncc(-c3ccc4oc(C(=O)O)cc4c3)n2)CC1 | 21 | 53 | 
O=C(O)c1cc2cc(Br)cc(OCCc3ccncc3)c2o1 | 21100 | 4500 | 
N[C@H]1CC[C@H](Nc2cncc(-c3ccc4oc(C(=O)O)cc4c3)n2)CC1 | 54 |  | 
Cn1cc(-c2ccc3oc(C(=O)O)cc3c2)cn1 | 2900 | 5400 | 
NCCCCNc1nccc(-c2ccc3oc(C(=O)O)cc3c2)n1 | 590 | 460 | 
O=C(O)c1cc2cc(C(F)(F)F)ccc2o1 | 13500 | 5300 | 
O=C(O)c1cc2cc(-c3cnccn3)ccc2o1 | 11900 | 7400 | 
NCCCCNc1ccnc(-c2ccc3oc(C(=O)O)cc3c2)n1 | 1200 | 1900 | 
O=C(O)c1cc2cc(-c3cncc(NC4CNC4)n3)ccc2o1 | 100 | 450 | 
O=C(O)c1cc2cc(-c3cnn(C4CCNCC4)c3)ccc2o1 | 5800 | 6000 | 
O=C(O)c1cc2cc(-c3cncc(NC4CCNCC4)n3)ccc2o1 | 150 | 210 | 
O=C(O)c1cc2cc(Br)cc(OCc3ccncc3)c2o1 | 12500 | 4900 | 
O=C(O)c1cc2cc(-c3cccnc3)ccc2o1 | 7100 | 7800 | 
COc1cc(Br)cc2cc(C#N)oc12 |  |  | inhibition [5]: inactive
O=C(O)c1cc2cc(OC(F)(F)F)ccc2o1 |  | 6100 | 
O=C(O)c1cc2ccccc2o1 |  | 119000 | 

Second part, led by results:

IC50 [1] [nM] | IC50 [2] [nM] | SMILES | further results
260 | 150 | O=C(O)c1cc2cc(Br)cc(NC(=O)C3CCNCC3)c2o1 | 
340 | 55 | O=C(CC1CCNCC1)Nc1cc(Br)cc2cc(C(=O)O)oc12 | 
190 | 20 | O=C(O)c1cc2cc(Br)cc(NCC3CCNCC3)c2o1 | IC50 (Cytochrome P450 1A2): > 10000 nM; microsomal CLint [3]: 14.1 µL/min/mg; IC50 (Cytochrome P450 2D6): > 10000 nM; IC50 (Cytochrome P450 2C9): > 10000 nM; microsomal CLint (in vitro): 9.9 µL/min/mg; solubility [4]: > 58 µg/mL; IC50 (Cytochrome P450 3A4): > 10000 nM; IC50 (Cytochrome P450 2C19): > 10000 nM
7000 | 980 | O=C(O)c1cc2cc(Br)cc(C(=O)NC3CCNCC3)c2o1 | 
350 | 71 | O=C(O)c1cc2cc(Br)cc(OCC3CCCNC3)c2o1 (configuration not stated) | 
66 |  | N[C@H]1CC[C@H](Nc2cc(Br)cc3cc(C(=O)O)oc23)CC1 | IC50 (Cytochrome P450 1A2): > 10000 nM; microsomal CLint [3]: 8.1 µL/min/mg; IC50 (Cytochrome P450 2D6): > 10000 nM; IC50 (Cytochrome P450 2C9): > 10000 nM; microsomal CLint (in vitro): 11.2 µL/min/mg; solubility [4]: > 58 µg/mL; IC50 (Cytochrome P450 3A4): > 10000 nM; IC50 (Cytochrome P450 2C19): > 10000 nM
160 | 380 | O=C(O)c1cc2cc(-c3cncc(NCC4CCNCC4)n3)ccc2o1 | 
350 | 51 | O=C(O)c1cc2cc(Br)cc(OCCC3CCNCC3)c2o1 | 
1300 | 220 | O=C(O)c1cc2cc(Br)cc(OCC(=O)N3CCNCC3)c2o1 | 
250 | 60 | O=C(O)c1cc2cc(Br)cc(OCC3CCNCC3)c2o1 | 
540 | 40 | O=C(O)c1cc2cc(Br)cc(NCCC3CCNCC3)c2o1 | 
6800 | 2300 | O=C(O)c1cc2cc(Br)cc(N[C@H]3CC[C@@H](O)CC3)c2o1 | 
4 |  | N[C@H]1CC[C@@H](Nc2cc(Br)cc3cc(C(=O)O)oc23)CC1 | IC50 (Cytochrome P450 1A2): > 10000 nM; microsomal CLint [3]: 10 µL/min/mg; IC50 (Cytochrome P450 2D6): > 10000 nM; IC50 (Cytochrome P450 2C9): > 10000 nM; microsomal CLint (in vitro): 10.2 µL/min/mg; solubility [4]: 20.1 µg/mL (≈ 56.9 µM); IC50 (Cytochrome P450 3A4): > 10000 nM; IC50 (Cytochrome P450 2C19): > 10000 nM
1300 | 2700 | O=C(O)c1cc2cc(Br)cc(C(=O)NCC3CCNCC3)c2o1 | 
6100 | 2400 | O=C(O)c1cc2cc(Br)cc(N[C@H]3CC[C@H](O)CC3)c2o1 | 
